{"source": "patent US20120065179A1", "about": "“PRODRUG COMPRISING BETA-KETO CARBOXYLIC ACID, BETA-KETO CARBOXYLIC ACID SALT OR BETA-KETO CARBOXYLIC ACID ESTER FOR DRUG DELIVERY” (YKI, Ytemiska Institutet AB, priority 2009, published 2012)", "key": {"[1]": {"test": "Sustained release of acetophenone in vitro in model blood electrolyte solution at 37° C.", "format": "physicochemical", "conditions": "formed from sodium benzoyl acetate, model blood electrolyte solution pH 7.4", "method": "A 0.2 M solution of ethyl benzoyl acetate (90%, Sigma Aldrich) in 0.5 M NaOH (aq) was prepared at room temperature and stirred for typically 5-24 hours, still at room temperature. After this time a major part of the ethyl benzoyl acetate had been transformed into dissolved sodium benzoyl acetate, as evidenced by monitoring the reaction by analysis of samples by reversed phase HPLC. Some acetophenone and remaining ethyl benzoyl acetate were typically present in the samples, but in minor amounts. The method employed a C8 column with an inner diameter of 150×4.6 mm and 5 micron particles. The mobile phase consisted of 400 ml deionized water+600 ml acetonitrile+0.196 g H3PO4 (85%)+2.760 g NaH2PO4*H2O. The flow rate was set to 1.0 mL/min and UV detection at 254 nm was employed for analysis of the compounds ethylbenzoylacetate (precursor), benzoylacetate (model prodrug) and acetophenone (model drug).\nEthyl benzoyl acetate was saponified according to the description in Example 1, and after 7 hours a solution containing about 0.2 M of the sodium salt of benzoyl acetate was obtained."}, "[2]": {"conditions": "pig, 2 mM, pH 6.63"}, "[3]": {"conditions": "tabulated solubility; cited from earlier work"}}, "note": "Read-outs that look alike come from different tables or passages of the source."}
{"smiles": "CC(=O)c1ccccc1", "note": "[acetophenone]", "values": [{"measurement": "Concentration of acetophenone (model drug) in sample", "setting": "[1]; Time @ 37° C. 0.42", "value": 160, "unit": "µM"}, {"measurement": "Concentration of acetophenone (model drug) in sample", "setting": "[1]; Time @ 37° C. 2.25", "value": 290, "unit": "µM"}, {"measurement": "Concentration of acetophenone (model drug) in sample", "setting": "[1]; Time @ 37° C. 3.17", "value": 380, "unit": "µM"}, {"measurement": "Concentration of acetophenone (model drug) in sample", "setting": "[1]; Time @ 37° C. 4.17", "value": 480, "unit": "µM"}, {"measurement": "Concentration of acetophenone (model drug) in sample", "setting": "[1]; Time @ 37° C. 6.17", "value": 400, "unit": "µM"}, {"measurement": "Concentration of acetophenone (model drug) in sample", "setting": "[1]; Time @ 37° C. 8.25", "value": 630, "unit": "µM"}, {"measurement": "Concentration of acetophenone (model drug) in sample", "setting": "[1]; Time @ 37° C. 10.17", "value": 730, "unit": "µM"}, {"measurement": "Concentration of acetophenone (model drug) in sample", "setting": "[1]; Time @ 37° C. 12.17", "value": 730, "unit": "µM"}, {"measurement": "Concentration of acetophenone (model drug) in sample", "setting": "[1]; Time @ 37° C. 13.92", "value": 900, "unit": "µM"}, {"measurement": "Concentration of acetophenone (model drug) in sample", "setting": "[1]; Time @ 37° C. 17.92", "value": 920, "unit": "µM"}, {"measurement": "Concentration of acetophenone (model drug) in sample", "setting": "[1]; Time @ 37° C. 21.17", "value": 1080, "unit": "µM"}, {"measurement": "Concentration of acetophenone (model drug) in sample", "setting": "[1]; Time @ 37° C. 24.92", "value": 950, "unit": "µM"}, {"measurement": "Concentration of acetophenone (model drug) in sample", "setting": "[1]; Time @ 37° C. 31.33", "value": 1110, "unit": "µM"}, {"measurement": "Concentration of acetophenone (model drug) in sample", "setting": "[1]; Time @ 37° C. 48.75", "value": 1550, "unit": "µM"}, {"measurement": "Concentration of acetophenone (model drug) in sample", "setting": "[1]; Time @ 37° C. 76.33", "value": 1890, "unit": "µM"}, {"measurement": "Acetophenone concentration", "setting": "[2]; 0.25 h", "value": 0.09, "unit": "mM"}, {"measurement": "Acetophenone concentration", "setting": "[2]; 1.33 h", "value": 0.32, "unit": "mM"}, {"measurement": "Acetophenone concentration", "setting": "[2]; 2.58 h", "value": 0.50, "unit": "mM"}, {"measurement": "Acetophenone concentration", "setting": "[2]; 4.75 h", "value": 0.866, "unit": "mM"}, {"measurement": "Acetophenone concentration", "setting": "[2]; 5.58 h", "value": 0.866, "unit": "mM"}, {"measurement": "Acetophenone concentration", "setting": "[2]; 6.58 h", "value": 0.921, "unit": "mM"}, {"measurement": "Acetophenone concentration", "setting": "[2]; 22.58 h", "value": 1.34, "unit": "mM"}, {"measurement": "Acetophenone concentration", "setting": "[2]; -0.17 h", "value": 0.07, "unit": "mM"}, {"measurement": "Solubility", "setting": "[3]", "value": 46, "unit": "mM"}]}
